Laboratory results published in US20060084704A1, “Methods and compositions for enhancing degradation of nuclear receptor transcription factors and uses thereof” (priority 2004, published 2006).

Columns and labels:
progesterone receptor = target: T1, progesterone receptor (Homo sapiens, UniProt P06401); experiment: Western blot of LNCaP cell lysates, progesterone receptor; type: cell-based; details: 1 or 2 micromolar, 24 hours, presence or absence of DHT
T1 construct: endogenous in cells; host or cells: LNCaP
T1 sequence (P06401 1-933): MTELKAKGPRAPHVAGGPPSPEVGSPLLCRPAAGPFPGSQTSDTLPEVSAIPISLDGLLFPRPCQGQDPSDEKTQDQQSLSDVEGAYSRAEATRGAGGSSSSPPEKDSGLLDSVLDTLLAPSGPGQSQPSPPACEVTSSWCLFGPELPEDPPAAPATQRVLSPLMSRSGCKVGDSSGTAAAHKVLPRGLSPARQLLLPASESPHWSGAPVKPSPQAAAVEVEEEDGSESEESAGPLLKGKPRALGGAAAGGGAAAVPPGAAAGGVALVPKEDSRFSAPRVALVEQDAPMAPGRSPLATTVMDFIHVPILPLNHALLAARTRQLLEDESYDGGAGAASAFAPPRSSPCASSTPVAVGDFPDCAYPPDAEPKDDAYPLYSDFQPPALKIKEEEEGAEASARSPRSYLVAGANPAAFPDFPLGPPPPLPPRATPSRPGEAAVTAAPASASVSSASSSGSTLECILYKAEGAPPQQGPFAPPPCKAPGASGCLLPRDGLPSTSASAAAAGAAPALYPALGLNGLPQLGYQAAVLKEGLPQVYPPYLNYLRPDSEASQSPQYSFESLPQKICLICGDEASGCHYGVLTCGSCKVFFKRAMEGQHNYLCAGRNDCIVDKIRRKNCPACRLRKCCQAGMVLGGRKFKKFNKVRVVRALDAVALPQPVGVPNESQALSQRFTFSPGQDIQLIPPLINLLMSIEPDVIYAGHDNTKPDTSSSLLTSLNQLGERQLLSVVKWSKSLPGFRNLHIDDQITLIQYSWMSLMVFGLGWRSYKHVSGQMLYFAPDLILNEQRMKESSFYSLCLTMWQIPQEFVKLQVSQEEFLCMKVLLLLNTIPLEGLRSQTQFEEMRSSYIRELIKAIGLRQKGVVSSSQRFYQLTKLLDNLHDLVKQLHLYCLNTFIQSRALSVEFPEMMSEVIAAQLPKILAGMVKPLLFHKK

glucocorticoid receptor = target: T2, glucocorticoid receptor (Homo sapiens, UniProt P04150); experiment: Western blot of LNCaP cell lysates, GR; type: cell-based; details: 1 or 2 micromolar, 24 hours, presence or absence of DHT
T2 construct: endogenous in cells; host or cells: LNCaP
T2 sequence (P04150 1-777): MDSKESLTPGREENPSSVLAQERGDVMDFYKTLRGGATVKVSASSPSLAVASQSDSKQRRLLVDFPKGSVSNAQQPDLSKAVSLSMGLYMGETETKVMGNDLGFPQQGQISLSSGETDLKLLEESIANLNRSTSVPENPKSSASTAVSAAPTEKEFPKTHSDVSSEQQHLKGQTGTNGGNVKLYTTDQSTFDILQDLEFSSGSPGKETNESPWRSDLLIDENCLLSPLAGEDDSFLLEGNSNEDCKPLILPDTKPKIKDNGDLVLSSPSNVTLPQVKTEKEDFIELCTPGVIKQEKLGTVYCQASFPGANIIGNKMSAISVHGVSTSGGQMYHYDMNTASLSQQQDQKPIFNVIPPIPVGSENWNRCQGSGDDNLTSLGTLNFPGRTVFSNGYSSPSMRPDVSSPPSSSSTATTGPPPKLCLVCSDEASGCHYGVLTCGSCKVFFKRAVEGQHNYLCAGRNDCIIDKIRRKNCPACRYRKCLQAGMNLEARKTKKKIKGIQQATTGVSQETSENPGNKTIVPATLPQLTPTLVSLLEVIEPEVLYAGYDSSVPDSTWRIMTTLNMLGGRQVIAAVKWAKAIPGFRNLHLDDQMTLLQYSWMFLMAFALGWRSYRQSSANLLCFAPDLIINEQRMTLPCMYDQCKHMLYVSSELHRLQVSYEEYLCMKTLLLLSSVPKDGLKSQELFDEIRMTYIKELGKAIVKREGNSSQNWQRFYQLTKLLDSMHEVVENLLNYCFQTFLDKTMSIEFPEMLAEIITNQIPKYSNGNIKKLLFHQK
Description: Human prostate cancer LNCaP cells and T47D cells were plated at a density of 7×10^5 cells per 60 millimeter tissue culture dish in […] (RPMI) medium containing 10% FBS. The medium was changed to RPMI or DME medium containing 10% charcoal-stripped serum 24 hours later to deplete cellular androgens or estrogens. After another 24 hours, treatment with the test compounds began. The test dose of JC15 was 1 or 2 micromolar and the test does of JC9 was 1, 5 and 10 micromolar. LNCap cells also received dihydrotestosterone (DHT) (3 nanomolar). Control cells received a corresponding amount of the vehicle, dimethylsulfoxide (DMSO) (<0.04%) for an equivalent exposure time. Cells were incubated with JC15 for 24 or 48 hours, and were lysed in 250 microliters of 1×SDS/PAGE loading buffer. Approximately 40 micrograms of total cellular protein was loaded in each lane of a pre-cast gel (NuPAGE, Invitrogen). Protein separation and transfer were performed following the manufacturer's instructions.
For the prostate cell lysates, androgen receptor (AR) protein was visualized by incubating the resultant membranes with an anti-AR antibody (BD-PharMingen), followed by chemiluminescence detection (ECL Plus, Amersham). […] The resultant protein signals were quantified using densitometry and NIH ImageJ software.

SMILES: CCOC(=O)CCC(C(=O)C=Cc1ccc(O)c(OC)c1)C(=O)C=Cc1ccc(O)c(OC)c1 (centres unmarked) [JC15, 7-(4-hydroxy-3-methoxyphenyl)-4-[3-(4-hydroxy-3-methoxyphenyl)acryloyl]-5-oxo-hept-6-enoic acid ethyl ester]
- cellular concentration of progesterone receptor (progesterone receptor): decreased
- cellular concentration of glucocorticoid receptor (glucocorticoid receptor): did not substantially affect
